Reference: publication PMC6856805, “Environmental Risk Assessment for the Active Pharmaceutical Ingredient Mycophenolic Acid in European Surface Waters” (Environmental Toxicology and Chemistry, 2019)
Values after ≈ are worked out from the molar mass of the structure shown. Where two headings read alike, the source gives them in different places.

Key:
[1] = Dissociation constant (pKa) by titration; type: physicochemical; settings: 25 ± 2 °C
Text: (§1) Syntex derived many basic physicochemical properties for both MPM and MPA in the early 1990s. The results for MPA are mostly given in the present study.

[2] = n-octanol/water distribution coefficient (log DOW), shake-flask method; type: physicochemical
Text: as §1

[3] = Screening hydrolysis test; type: physicochemical; settings: 5 d
Experimental: as §1
A screening hydolysis test was performed by Syntex with MPA in 0.1 M buffered solutions in triplicate at pH 5, 7 and 9 over 5 days at 50 °C, with HPLC determination of MPA at the start and end of the exposure, 'closely following US Food and Drug Administration 1987 Environmental Assessment Technical Assistance Handbook recommendations' (Young & Licato 1994b).

Anabaena flos-aquae = assay: microbe, parasite or virus in culture; type: cell-based; settings: 72 h
Text: The new chronic ecotoxicity tests with cyanobacteria (D. Gilberg and G. Chambers, ECT Oekotoxikologie, Flörsheim, Germany, on behalf of F.Hoffmann‐La Roche, Basle, Switzerland, unpublished data), daphnids (P. Egeler and J. Chambers, ECT Oekotoxikologie, Flörsheim, Germany, on behalf of F.Hoffmann‐La Roche, Basle, Switzerland, unpublished data), and fish (D. Gilberg and G. Chambers, unpublished data) fulfilled the validity criteria of the respective OECD guidelines (see the Supplemental Data). […] The following endpoints were determined, all relating to GMMC: NOEC (both growth and yield) 83.9 µg MPA/L, LOEC 284 µg/L, ErC10 155 (95% confidence interval [CI] 137–171) µg/L, and ErC50 423 (95% CI 406–441) µg/L (D. Gilberg and G. Chambers, unpublished data).
An OECD 201 algal growth inhibition test was performed by ECT Oekotoxikologie, Flörsheim, Germany, with the cyanobacterian Anabaena flos-aquae with a series of concentrations of MPA in cyanobacteria test medium in different concentrations plus medium-only controls under continuous lighting over 72 h (Gilberg & Chambers 2017). The growth of the algae was measured by calibrated fluorescence intensity of sonicated test solution samples using a fluorometer after 24, 48 and 72 hours. The test concentrations were analysed by HPLC at the start and end of the test.

Danio rerio = assay: Fish partial life cycle test, OECD 210 early life stage phase (F1); type: in vivo
Experimental: At the highest tested concentration of 0.1 mg MPA/L nominal concentration (73 µg/L GMMC), only 2 of 75 hatched fish survived until the end of the test, showing that the test concentration range was well chosen. The most sensitive endpoints in this partial life cycle test were survival and growth in terms of length and mass of the young F1 fish; the effects were comparatively small but statistically significant at p = 0.05. In contrast, the F0 generation was impacted to a lesser extent.
In view of the mammalian mutagenicity and reprotoxicity, a fish partial life-cycle test (PLC; an OECD 229 short-term reproduction test followed by an OECD 210 early-life-stage test) was performed by ECT Oekotoxikologie under GLP with a series of concentrations of MPA in a flow-through setting with the zebrafish Danio rerio (Gilberg & Chambers 2018). Briefly, mature fish (F0 generation) in breeding groups of 14 fish were exposed to four concentrations of the test item (0.0005, 0.0029, 0.0171 and 0.100 mg MPA/L), in fish media as well as to controls without the test item, in two replicates per treatment including controls, for 23 days in a 14-hours light to 10-hours dark photoperiod (OECD 229 phase). During this time period, reproduction parameters (survival of parents, fecundity, e.g., number of eggs, fertility and embryo viability/hatchability) of zebrafish exposed to the test item were assessed in comparison with the controls to determine the lowest observed effect concentration (LOEC) and the NOEC. After 23 days, newly fertilised eggs of the F1 generation were collected and exposed to the corresponding series of test item concentrations, 20 eggs in four replicates each per treatment including controls, until 30 days post-hatch (OECD 210 phase). Lethal and sublethal effects of the test item on eggs, larvae and juvenile fish exposed to the test item were assessed in comparison with controls to determine the LOEC and the NOEC. Samples were taken and analysed by LC–MS/MS (Supplemental Information) and the GMMC for the concentrations determined. Statistical check were made using Probit analyses, Weibull analyses, 2- and 3-parameter normal CDF, Shapiro-Wilk’s test on normal distribution, Levene’s test on variance homogeneity, Fisher's Exact Binomial test, Chi² 2×2 Table Test, Welsh t-test, Step-down Cochran-Armitage test Procedure, Williams Multiple Sequential t-test Procedure and Dunnett`s Multiple t-test Procedure.

[4] = set-up: method as in Franquet‐Griell et al. (2017a); settings: ref Franquet‐Griell et al. (2017a), cited from earlier work
Cyprinus carpio = tested on: Cyprinus carpio; set-up: method as in FASS 2018; settings: OECD 203; ref FASS 2018; cited from earlier work
[5] = tested on: inosine-5'-monophosphate dehydrogenase (IMPDH); set-up: method as in Wishart et al. 2018; Royal Pharmaceutical Society 2018; settings: ref Wishart et al. 2018; Royal Pharmaceutical Society 2018; cited from earlier work
[6] = tested on: Rhaphidocelis (Pseudokirchneriella) subcapitata; settings: cited from earlier work
daphnid = assay: animal or person; settings: read-out: 48‐h median effect concentration (EC50)

For `COc1c(C)c2c(c(O)c1CC=C(C)CCC(=O)O)C(=O)OC2` [MPA, 6‐(1,3‐dihydro‐4‐hydroxy‐6‐methoxy‐7‐methyl‐3‐oxo‐5‐isobenzofuranyl)‐4‐methyl‐4‐hexenoic acid], the “pK a, carboxylic acid” value [1] was 4.58, the “pK a, phenolic” value [1] was 8.045 and the logD ([2]; pH 5, pH 5, read-out: Log D OW) was 2.28. It also gave a logD ([2]; pH 5, pH 5 to 9, read-out: log D OW values) of at most 2.28, a logD ([2]; pH 7, pH 7, read-out: Log D OW) of 0.48 and a logD ([2]; pH 9, pH 9, read-out: Log D OW) of at most -1.54. It also gave a Screening hydrolysis ([3]; pH 5, 50 °C) of 46.15 % Substance loss, a Screening hydrolysis ([3]; pH 7, 50 °C) of 29.03 % Substance loss and a Screening hydrolysis ([3]; pH 9, 50 °C) of 36.67 % Substance loss. For the same molecule, the ErC10 (Anabaena flos-aquae; Anabaena flos-aquae) was 155 µg/L, the LOEC (Anabaena flos-aquae; Anabaena flos-aquae) was 284 µg/L and the “NOEC (both growth and yield)” value (Anabaena flos-aquae; Anabaena flos-aquae) was 83.9 µg MPA/L. For the same molecule, the EC50 (Anabaena flos-aquae; Dolichospermum flos-aquae, GMMC, read-out: ErC50) was 0.423 µg/mL (≈ 1.32 µM), the “hatched fish surviving until the end of the test” value (Danio rerio; 0.1 mg MPA/L nominal (73 µg/L GMMC)) was 2 of 75 and the “EC10, hatching success” value (Danio rerio; 34 d phase) was over 73 µg GMMC MPA/L. For the same molecule, the “NOEC, hatching success” value (Danio rerio; 34 d phase, GMMC) was 73 µg/L, the “lowest EC10” value (Danio rerio; Danio rerio, in vivo, 57 d) was 5.8 µg MPA/L and the “overall NOEC for all endpoints in both F0 and F1 generations” value (Danio rerio; Danio rerio, in vivo, 57 d) was 1.32 µg MPA/L. The “EC10, posthatch success (survival) and number of healthy fish” value (Danio rerio; F1, GMMC) was 5.8 µg MPA/L, the “NOEC, posthatch success (survival) and number of healthy fish” value (Danio rerio; F1, GMMC) was 10.9 µg MPA/L and the “EC10, length of the surviving F1 fish” value (Danio rerio; GMMC) was 31.9 µg MPA/L. For the same molecule, the “EC10, wet weight of the surviving F1 fish” value (Danio rerio; GMMC) was 10.6 µg MPA/L, the “NOEC, length of the surviving F1 fish” value (Danio rerio; GMMC) was 1.32 µg/L and the “NOEC, wet weight of the surviving F1 fish” value (Danio rerio; GMMC) was 1.32 µg/L. The “biodegradation rate constant k biodeg” value ([4]; fifth cycle) was 0.006 min^–1, the “biodegradation rate constant k biodeg” value ([4]; first cycle) was 0.0017 min^–1 and the “acute fish 50% lethal concentration (LC50)” value (Cyprinus carpio) was over 100 µg/mL. The type of inhibition [5] was “reversible, potent, and noncompetitive inhibitor”, the ErC50 ([6]; GMMC, 24 h dark + 72 h light, ref European Chemicals Agency 2018) was 68 µg/L and the ErC10 [6] was 12 µg/L. For the same molecule, the NOErC [6] was 9 µg/L and the EC50 (daphnid) was 755 µg/mL (≈ 2360 µM).
